Here are results for 22 molecules from patent US5128338A, “Imidazo [1,2-c] quinazoline compounds” (priority 1990, dated 1992).

Where two headings read alike, the source gives them in different places. Where only a bound is given, the exact number is not on record here.

Experiment [1] deals with T1, peripheral receptors for benzodiazepines ([^3 H]-PK 11195) (Rattus norvegicus, UniProt P16257).
T1 construct: on microsomal fractions from rat heart; from tissue; host or cells: rat heart, microsomal fractions
The experiment can be described thus: Displacement of [3H]-PK 11195, rat heart microsomal fractions.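 Also: radioligand binding with bound label split from free by vacuum filtration, then quantified through liquid scintillation counting.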 The experiment is classed as binding. The settings on record: corrected for DMSO, read-out: K0.5, peripheral receptors, [^3 H]--PK 11195. A general note: Loss of bound radioactivity is the signal in a displacement assay; it reports binding, not function.

Experiment [2] deals with T2, peripheral receptors for benzodiazepines ([^3 H]-R05-4864) (Rattus norvegicus, UniProt P16257).
T2 construct: on microsomal fractions from rat heart; from tissue; host or cells: rat heart, microsomal fractions
The experiment can be described thus: Displacement of [3H]-R05-4864, rat heart microsomal fractions.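 Also: Read-out is filter-retained bound radioligand, separated from free ligand by vacuum filtration over GF/C and counted by liquid scintillation, with compounds first dissolved in DMSO.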 The experiment is classed as binding. The conditions noted are these: corrected for DMSO, read-out: K0.5, peripheral receptors, [^3 H]--RO 54864.

In experiment [3] the test system is porcine coronary. Briefly: Porcine coronary relaxation (PGF2α-precontracted coronary segments). Further details: species or system pig (Yucatan mini pig). The conditions noted are these: for level of relaxation obtained as well as the 50% effect value (K0.5) obtained by displacement: overall judgement of relaxation and K0.5; for EC20 / EC50: Sus scrofa; for EC20: read-out: DE20, effect on coronary tension induced by PGF2α; for EC50: read-out: DE50, effect on coronary tension induced by PGF2α. As for the experimental part: All the products studied were dissolved in DMSO at a concentration of 10^-2 M, then diluted to the desired concentrations in the experimental media. All of the ED20, ED50 and K0.5 values were corrected for the values obtained with DMSO under the same conditions of dilution.
Coronaries were taken on the heart of pigs (Yucatan mini pig), anesthetized under stresnil and pentobarbital. Proximal segments of the coronary were placed in an organ tank filled with Ringer solution at 37° C. The segments were tightened progressively to a base tension of around 6 g and contracted by the addition of PGF2α at a concentration of 4.10^-6 M. The potential of the products of the present invention to relax the coronary artery were then tested.
All of the compounds were tested for their capacity to relax the porcine coronary precontracted by PGF2α.

The target of experiment [4] is central receptors for benzodiazepines. The experiment can be described thus: Displacement of [3H]-RO 151788, rat central nervous system microsomal fractions. The format is binding. The conditions noted are these: corrected for DMSO, read-out: K0.5, central receptors, [^3 H]--RO 151788.
Setting [5] is: porcine coronary segments, 37° C., PGF2α 4.10^-6 M, corrected for DMSO.
Setting [6] is: porcine coronary segments, PGF2α 4.10^-6 M.

As to `CCCN(CCC)C(=O)Cn1c(=O)n2c(C)c(-c3cccc(Cl)c3)nc2c2ccccc21` [Example 32, 2-(m-chlorophenyl)-3-methyl-6-N,N-dipropylaminocarbonylmethyl-5-oxo-5,6-dihydroimidazo[1,2-c]quinazoline], the IC50 is 0.0024 µM in experiment [1], 0.0031 µM in experiment [2] and greater than 100 µM in experiment [4]. Besides, in experiment [3], the “level of relaxation obtained as well as the 50% effect value (K0.5) obtained by displacement” value is “particularly favorable”.
Turning to `CCC(C)N(C)C(=O)c1cc2ccccc2c(-c2ccccc2Cl)n1` (stereo not drawn) [PK 11195, reference compound], in experiment [3], the EC20 amounted to 9.13 µM and the EC50 came to 1.66 µM.
As for `CN1C(=O)CN=C(c2ccccc2)c2cc(Cl)ccc21` [Diazepam, diazepam, reference compound], the EC20 in experiment [3] was found to be 16.4 µM.
Regarding `CCc1c(-c2ccccc2)nc2c3ccccc3n(CC(=O)N(CC)CC)c(=O)n12` [Example 25, 2-phenyl-3-ethyl-6-N,N-diethylaminocarbonylmethyl-5-oxo-5,6-dihydroimidazo[1,2-c]quinazoline], in experiment [1], the IC50 came to 0.032 µM. In addition, the IC50 in experiment [2] turned out to be 0.05 µM. For the same molecule, in experiment [3] (setting [5]), the EC20 was greater than 100 µM and the EC50 amounted to 370 µM.
The like results for `CN1CCN(C(=O)Cn2c(=O)n3cc(-c4ccccc4)nc3c3ccccc32)CC1` [Example 12, 2-phenyl-6-N-methylpiperazinocarbonylmethyl-5-oxo-5,6-dihydroimidazo[1,2-c]quinazoline] were, in that order, 80 µM, 40 µM, 587 µM and 31.9 µM.
For `Cn1c(=O)n2cc(-c3ccccc3)nc2c2ccccc21` [Example 29, 2-phenyl-6-methyl--5-oxo-5,6-dihydroimidazo[1,2-c]quinazoline], in that order: greater than 100 µM, greater than 100 µM, greater than 100 µM and greater than 100 µM.
For `CCOC(=O)COc1ccc2c(=O)cc(-c3ccccc3)oc2c1` [Efloxate, efloxate, reference compound], in that order: 20 µM, 200 µM, 35.8 µM and 3.94 µM.
`OCCN(CCO)c1nc(N2CCCCC2)c2nc(N(CCO)CCO)nc(N3CCCCC3)c2n1` [Dipyridamole, dipyridamole, reference compound]: the IC50 in experiment [1] was 0.3 µM. Besides, the IC50 in experiment [2] came out at 0.2 µM. Further, in experiment [3] (setting [5]), the EC20 stood at 1.61 µM and the EC50 turned out to be 0.446 µM.
For the molecule `CCCN(CCC)C(=O)Cn1c(=O)n2cc(-c3ccccc3)nc2c2ccccc21` [Example 28, 2-phenyl-6-N,N-dipropylaminocarbonylmethyl-5-oxo-5,6-dihydroimidazo[1,2-c]quinazoline], in experiment [3] (setting [5]), the EC20 was greater than 100 µM and the EC50 came out at 196 µM. For the same molecule, the “level of relaxation obtained as well as the 50% effect value (K0.5) obtained by displacement” value in experiment [3] is reported as “particularly favorable”. Moreover, in experiment [4], the IC50 amounted to 100 µM.
With `O=C(c1ccccc1)c1cn2c(=O)[nH]c3ccccc3c2n1` [Example 9, 2-benzoyl-5-oxo-5,6-dihydroimidazo[1,2-c]quinazoline], the IC50 turned out to be 28 µM in experiment [1] and 13 µM in experiment [2]. In addition, the “Effect on coronary tension induced by PGF2α (in words)” value in experiment [3] (setting [6]) is given as “No effect”.
As for `CN1C(=O)CN=C(c2ccc(Cl)cc2)c2cc(Cl)ccc21` [Example R05-4864, reference compound], in experiment [3], the EC20 came out at 9.38 µM and the EC50 was found to be 1.48 µM.
For the molecule `CCOC(=O)c1cn2c(=O)n(C)c3ccccc3c2n1` [Example 8, 2-ethoxycarbonyl-6-methyl-5-oxo-5,6-dihydroimidazo[1,2-c]quinazoline], the IC50 is greater than 100 µM in experiment [1] and 30 µM in experiment [2]. For the same molecule, the “Effect on coronary tension induced by PGF2α (in words)” value in experiment [3] (setting [6]) is listed as “No effect”.
For `CCOC(=O)c1cn2c(=O)n(CC(=O)N(CC)CC)c3ccccc3c2n1` [Example 2, 2-Ethoxycarbonyl-6-N,N-diethylaminocarbonylmethyl-5-oxo-5,6-dihydroimidazo[1,2-c]quinazoline], the IC50 in experiment [1] came to 0.55 µM.
With `CCN(CC)C(=O)Cn1c(=O)n2cc(C(=O)c3ccccc3)nc2c2ccccc21` [Example 6, 2-Benzoyl-6-N,N-diethylaminocarbonylmethyl-5-oxo-5,6-dihydroimidazo[1,2-c]quinazoline], the IC50 in experiment [1] came out at 0.22 µM; in experiment [2], 0.2 µM.
Regarding `CCN(CC)C(=O)Cn1c(=O)n2c(CN(C)C)c(-c3ccccc3)nc2c2ccccc21` [Example 5, 2-Phenyl-3-dimethylaminomethyl-6-N,N-diethylaminocarbonylmethyl-5-oxo-5,6-dihydroimidazo[1,2-c]quinazoline], the figures for the IC50 in experiment [1] and in experiment [2] were 2.2 µM and 4.5 µM, respectively. For the same molecule, the EC20 in experiment [3] (setting [5]) was 144 µM. In addition, the EC50 in experiment [3] (setting [5]) turned out to be 18.9 µM.
Regarding `CCN(CC)C(=O)Cn1c(=O)n2cc(-c3ccccc3Cl)nc2c2ccccc21` [Example 30, 2-(o-chlorophenyl)-6-N,N-diethylaminocarbonylmethyl-5-oxo-5,6-dihydroimidazo[1,2-c]quinazoline], the IC50 in experiment [1] was 0.28 µM. Moreover, the IC50 in experiment [2] is 0.034 µM. Besides, in experiment [3] (setting [5]), the EC20 was 73.9 µM and the EC50 came out at 10.4 µM.
For `O=c1[nH]c2ccccc2c2nc(-c3ccccc3)cn12` [Example 3, 2-Phenyl-5-oxo-5,6-dihydroimidazo[1,2-c]quinazoline], in that order: 4.5 µM, greater than 100 µM, 35.4 µM and 7.48 µM.
As to `CCN(CC)C(=O)Cn1c(=O)n2cc(-c3ccccc3)nc2c2ccccc21` [Example 11, 2-phenyl-6-N,N-diethylaminocarbonylmethyl-5-oxo-5,6-dihydroimidazo[1,2-c]quinazoline], in experiment [3] (setting [5]), the EC20 stood at 6.93 µM and the EC50 was determined as 1.13 µM. The “level of relaxation obtained as well as the 50% effect value (K0.5) obtained by displacement” value in experiment [3] was “particularly favorable”. The IC50 in experiment [4] is greater than 100 µM.
For `CCN(CC)C(=O)Cn1c(=O)n2c(C)c(-c3ccccc3)nc2c2ccccc21` [Example 20, 2-phenyl-3-methyl-6--N,N-diethylaminocarbonylmethyl-5-oxo-5,6-dihydroimidazo[1,2-c]quinazoline], the IC50 in experiment [2] is 0.0086 µM. In experiment [3] (setting [5]), the EC20 was found to be 3.46 µM and the EC50 was 0.87 µM.
As to `CCN(CC)C(=O)Cn1c(=O)n2cc(-c3ccccc3)nc2c2c(Cl)cccc21` [Example 31, 2-phenyl-6-N,N-diethylaminocarbonylmethyl-10-chloro-5-oxo-5,6-dihydroimidazo[1,2-c]quinazoline], the IC50 came out at 1.4 µM in experiment [1], 2.8 µM in experiment [2] and 100 µM in experiment [4].
Consider `CCN(CC)C(=O)Cn1c(=O)n2cc(-c3ccc(OC)c(OC)c3)nc2c2ccccc21` [Example 23, 2-(3,4-dimethoxyphenyl)-6-N,N-diethylaminocarbonylmethyl-5-oxo-5,6-dihydroimidazo[1,2-c]quinazoline], for which, in experiment [3] (setting [5]), the EC20 stood at 0.74 µM and the EC50 is 0.18 µM. For the same molecule, the IC50 in experiment [4] was greater than 100 µM.
Take `CCOC(=O)c1cn2c(=O)n(Cc3ccccc3)c3ccccc3c2n1` [Example 10, 2-ethoxycarbonyl-6-benzyl-5-oxo-5,6-dihydroimidazo[1,2-c]quinazoline]: the IC50 in experiment [1] is roughly 100 µM. In addition, the IC50 in experiment [2] was found to be 8.8 µM. Besides, in experiment [3] (setting [5]), the EC20 was found to be 3.33 µM and the EC50 was found to be 1.04 µM. Also, in experiment [3], the “level of relaxation obtained as well as the 50% effect value (K0.5) obtained by displacement” value is “particularly favorable”.
